Measured values from patent US10407467B2, “Polymyxin derivatives and their use in combination therapy together with different antibiotics” (priority 2013, dated 2019).
Bridge positions count the residues as written; N and C are the ends. Square brackets hold non-standard residues; d marks the D form. Peptide text beside a SMILES is read from it. ξ: configuration not given here. Thr(3ξ) = CC(O)[C@H](N)C(=O)O; Dab = NCC[C@H](N)C(=O)O; GABA = NCCCC(=O)O

Experiments:
[1] = tested on: Klebsiella pneumoniae ATCC10031
Experimental: At 1 h, the CFU count was determined from 5 mice and the remaining mice (five per group) were treated with a subcutaneous injection of the drug at +1 and 6 hr post-infection.
Twenty-four hours after infection, the mice were euthanized humanely. The muscle of the right thigh of each animal was harvested, homogenized, serially diluted and plated on Brain Heart Infusion agar+0.5% charcoal (w/v) for CFU determination. Decrease of the total CFU of right thigh as compared to control counts at 24 h post-infection was determined for each dose group.

[2] = rats, 8 mg/kg BID regimen, seven days, compared to Colistin at the same dose regimen
Experimental: After one week acclimatisation, male Sprague-Dawley rats were surgically prepared with a jugular cannula and were housed individually, as required, either in pre-assigned housing cages or metabolic cages. Colistin and the Example Compounds were prepared in saline.
Compounds were introduced via the jugular cannula twice a day 7 hours apart for seven days. Each dose was increased progressively for three days up to the top dose that was then administered until termination of the study. Twenty-four hour urine collection (on ice) was performed at pre-dose and on days 4 and 7. The dose regimen is set out in Table 10 below.
The doses in the table are indicated in mg drug base/kg (free base).
The activity in urine of the N-acetyl-beta-D-glucosaminidase (NAG) was determined spectrophotometrically using the NAG assay kit from Roche Applied Science. Biomarkers of kidney injury were determined using the Kidney Injury Panel II from the Multi-Spot® Assay System (Meso Scale Discovery).

[3] = tested on: Escherichia coli; experiment: MIC, sole activity (no second agent); type: cell-based
How it was run: (§1)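 Up to four strains per species were tested in cation-adjusted Mueller-Hinton broth, with inoculum made by direct colony suspension from 18-24 hour Mueller-Hinton agar plates, adjusted to 0.5 McFarland. Duplicates differing by under 2-fold gave the lower value; greater spread voided the run. Values are relative to Polymyxin B.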

[4] = tested on: Pseudomonas aeruginosa; experiment: MIC, sole activity (no second agent); type: cell-based
How it was run: as §1

[5] = tested on: Klebsiella pneumoniae; experiment: MIC, sole activity (no second agent); type: cell-based
How it was run: as §1

[6] = tested on: Klebsiella pneumoniae; experiment: MIC, compound in combination with a second agent (broth microdilution); type: cell-based
How it was run: (§2)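 MIC values express combined concentration of test compound plus partner agent such as rifampicin, mixed at equal mass (1:1 w/w, salt-form weight). Direct colony suspensions at 0.5 McFarland, up to four strains per species, tested in duplicate; >2-fold disagreement invalid, otherwise lower value or mode of repeats reported.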

[7] = tested on: HK-2 cell line; experiment: In vitro renal cell toxicity assay (resazurin reduction); type: cell-based, human; conditions: HK-2 cells, 24 h, resazurin reduction; mean values of up to 6 independent studies
[8] = tested on: Acinetobacter baumannii; experiment: MIC, sole activity (no second agent); type: cell-based; conditions: Second Agent none (Table 7B, by row order)
How it was run: as §1

[9] = tested on: Escherichia coli; experiment: MIC, compound in combination with a second agent (broth microdilution); type: cell-based
How it was run: as §2

[10] = tested on: Pseudomonas aeruginosa; experiment: as above; type: cell-based
How it was run: as §2

[11] = tested on: Acinetobacter baumannii; experiment: as above; type: cell-based
How it was run: as §2

[12] = 1:1 (wt:wt) combination with Rifampicin, MIC = total drug concentration, strain ATCC-BAA-2146
[13] = 1:1 (wt:wt) combination with Rifampicin, MIC = total drug concentration, strain CCUG-59348
[14] = 1:1 (wt:wt) combination with Rifampicin, MIC = total drug concentration, strain NCTC 13438
[15] = Second Agent none (Table 7B, by row order)
[16] = 1:1 combination with Ciprofloxacin, total drug concentration
[17] = 1:1 combination with Tigecycline, total drug concentration
[18] = 1:1 combination with Vancomycin, total drug concentration
[19] = 1:1 combination with Ciprofloxacin (by row order), total drug concentration
[20] = Ratio of Compound to Rifampicin 1:1, total drug concentration
[21] = Ratio of Compound to Rifampicin 1:3, total drug concentration
[22] = Ratio of Compound to Rifampicin 3:1, total drug concentration

Molecule: CC(C)C[C@@H]1NC(=O)[C@@H](Cc2ccccc2)NC(=O)[C@H](CCN)NC(=O)[C@@H](NC(=O)[C@H](CCN)NC(=O)[C@@H](NC(=O)CCCN)C(C)O)CCNC(=O)[C@H](C(C)O)NC(=O)[C@H](CCN)NC(=O)[C@H](CCN)NC1=O (stereo partly drawn) [Example 4, 4-Aminobutanoyl polymyxin B nonapeptide] (H-[GABA][Thr(3ξ)][Dab][Dab][Dab][dF]L[Dab][Dab][Thr(3ξ)]; lactam 4-C)
- reduction in bacterial counts ([1]; 10 mg/kg/day, neutropenic mice thigh infection): approx. 2 log10
- levels of the renal biomarkers NAG, albumin and cystatin C in urine [2]: significantly reduced levels
- MIC E. coli ATCC25922 ([3]; in the absence of Rifampicin, strain ATCC25922): 2 micrograms/mL
- MIC E. coli NCTC9001 ([3]; in the absence of Rifampicin, strain NCTC9001): 8 micrograms/mL
- MIC P. aeruginosa ATCC 27853 ([4]; in the absence of Rifampicin, strain ATCC27853): 0.25 micrograms/mL
- MIC P. aeruginosa ATCCCRM-9027 ([4]; in the absence of Rifampicin, strain ATCCCRM-9027): 0.125 micrograms/mL
- MIC K. pneumoniae ATCC 4352 ([5]; in the absence of Rifampicin, strain ATCC 4352): 1 micrograms/mL
- MIC K. pneumoniae ATCC-BAA2146 ([5]; in the absence of Rifampicin, strain ATCC-BAA2146): >32 micrograms/mL
- MIC K. pneumoniae CCUG-59348 ([5]; in the absence of Rifampicin, strain CCUG-59348): >32 micrograms/mL
- MIC K. pneumoniae NCTC-13438 ([5]; in the absence of Rifampicin, strain NCTC-13438): >32 micrograms/mL
- MIC K. pneumoniae ATCC-BAA-2146 [6, 12]: 2 micrograms/mL
- MIC K. pneumoniae CCUG-59348 [6, 13]: 16 micrograms/mL
- MIC K. pneumoniae NCTC 13438 [6, 14]: 0.5 micrograms/mL

Molecule: Colistin [reference compound]
- Mean log10 CFU reduction vs. control ([1]; Total daily dosage 10 mg/Kg (sulfate salt), subcutaneous BID): 2.60 log10 CFU
- IC50 HK-2 cells [7]: 28 µg/mL
- MIC E. coli NCTC9001 ([3]; E. coli NCTC9001, second agent none): 1 micrograms/mL
- MIC E. coli NCTC9001 ([3]; Second Agent none (Table 7A)): 1 microgram/mL
- MIC E. coli ATCC25922 ([3]; Second Agent none (Table 7B)): 1 micrograms/mL
- MIC E. coli CCUG 59342 ([3]; Second Agent none (Table 7B)): 0.5 micrograms/mL
- MIC E. coli NCTC9001 ([3]; Second Agent none (Table 7B)): 2 micrograms/mL
- MIC E. coli NCTC9001 ([3]; Second Agent none (Table 7C)): 1 micrograms/mL
- MIC P. aeruginosa CCUG 59626 ([4]; P. aeruginosa CCUG 59626, second agent none): 0.5 micrograms/mL
- MIC P. aeruginosa ATCC 27853 [4, 15]: 0.25 micrograms/mL
- MIC P. aeruginosa CCUG 59626 [4, 15]: 0.5 micrograms/mL
- MIC P. aeruginosa CCUG 59626 ([4]; Second Agent none (Table 7C)): 0.5 micrograms/mL
- MIC A. baumannii NCTC 13424 [8]: 0.5 micrograms/mL
- MIC K. pneumoniae ATCC BAA-1706 ([5]; K. pneumoniae ATCC BAA-1706, second agent none): 2 micrograms/mL
- MIC K. pneumoniae CCUG 59348 ([5]; K. pneumoniae CCUG 59348, second agent none): 32 micrograms/mL
- MIC K. pneumoniae NCTC 13442 ([5]; K. pneumoniae NCTC 13442, second agent none): 2 micrograms/mL
- MIC K. pneumoniae CCUG 59348 ([5]; Second Agent none (Table 7A)): 32 microgram/mL
- MIC K. pneumoniae CCUG 59626 ([5]; Second Agent none (Table 7A)): 0.5 microgram/mL
- MIC K. pneumoniae NCTC 13442 ([5]; Second Agent none (Table 7A)): 2 microgram/mL
- MIC K. pneumoniae CCUG 59348 ([5]; Second Agent none (Table 7B)): 32 micrograms/mL
- MIC K. pneumoniae NCTC 13442 ([5]; Second Agent none (Table 7B)): 2 micrograms/mL
- MIC K. pneumoniae ATCC 4352 [5, 15]: 0.5 micrograms/mL
- MIC K. pneumoniae ATCC BAA-1706 [5, 15]: 2 micrograms/mL
- MIC K. pneumoniae CCUG 59348 ([5]; Second Agent none (Table 7C)): 32 micrograms/mL
- MIC K. pneumoniae NCTC 13442 ([5]; Second Agent none (Table 7C)): 2 micrograms/mL
- MIC E. coli ATCC25922 ([9]; 1:1 (wt:wt) combination with Rifampicin, MIC = total drug concentration, strain ATCC25922): 0.25 micrograms/mL
- MIC E. coli NCTC9001 ([9]; 1:1 (wt:wt) combination with Rifampicin, MIC = total drug concentration, strain NCTC9001): 0.25 micrograms/mL
- MIC E. coli ATCC25922 [9, 16]: ≤0.06 micrograms/mL
- MIC E. coli CCUG 59342 [9, 16]: 1 micrograms/mL
- MIC E. coli NCTC9001 [9, 16]: ≤0.06 micrograms/mL
- MIC E. coli NCTC9001 [9, 17]: 4 micrograms/mL
- MIC E. coli NCTC9001 [9, 18]: 4 microgram/mL
- MIC E. coli NCTC9001 ([9]; E. coli NCTC9001, 1:1 combination with Meropenem, total drug concentration): 0.25 micrograms/mL
- MIC P. aeruginosa ATCC 27853 ([10]; 1:1 (wt:wt) combination with Rifampicin, MIC = total drug concentration, strain ATCC 27853): 0.25 micrograms/mL
- MIC P. aeruginosa ATCC CRM-9027 ([10]; 1:1 (wt:wt) combination with Rifampicin, MIC = total drug concentration, strain ATCC CRM-9027): 1 micrograms/mL
- MIC P. aeruginosa ATCC-47 ([10]; 1:1 (wt:wt) combination with Rifampicin, MIC = total drug concentration, strain ATCC-47): 2 micrograms/mL
- MIC P. aeruginosa CCUG 59626 ([10]; 1:1 (wt:wt) combination with Rifampicin, MIC = total drug concentration, strain CCUG 59626): 0.5 micrograms/mL
- MIC P. aeruginosa ATCC 27853 [10, 19]: 0.125 micrograms/mL
- MIC P. aeruginosa CCUG 59626 [10, 19]: 1 micrograms/mL
- MIC P. aeruginosa CCUG 59626 [10, 17]: 1 micrograms/mL
- MIC P. aeruginosa CCUG 59626 ([10]; P. aeruginosa CCUG 59626, 1:1 combination with Meropenem, total drug concentration): 1 micrograms/mL
- MIC A. baumannii ATCC BAA-747 ([11]; 1:1 (wt:wt) combination with Rifampicin, MIC = total drug concentration, strain ATCC BAA-747): 0.25 micrograms/mL
- MIC A. baumannii CCUG57249 ([11]; 1:1 (wt:wt) combination with Rifampicin, MIC = total drug concentration, strain CCUG57249): 0.25 micrograms/mL
- MIC A. baumannii NCTC 13423 ([11]; 1:1 (wt:wt) combination with Rifampicin, MIC = total drug concentration, strain NCTC 13423): 0.125 micrograms/mL
- MIC A. baumannii NCTC 13424 ([11]; 1:1 (wt:wt) combination with Rifampicin, MIC = total drug concentration, strain NCTC 13424): 0.25 micrograms/mL
- MIC A. baumannii NCTC 13424 [11, 19]: 0.5 micrograms/mL
- MIC K. pneumoniae ATCC 4352 ([6]; 1:1 (wt:wt) combination with Rifampicin, MIC = total drug concentration, strain ATCC 4352): 0.5 micrograms/mL
- MIC K. pneumoniae ATCC-BAA-2146 [6, 12]: 1 micrograms/mL
- MIC K. pneumoniae CCUG-59348 [6, 13]: 1 micrograms/mL
- MIC K. pneumoniae NCTC 13438 [6, 14]: 0.5 micrograms/mL
- MIC K. pneumoniae ATCC 4352 [6, 19]: ≤0.06 micrograms/mL
- MIC K. pneumoniae ATCC BAA-1706 [6, 19]: 1 micrograms/mL
- MIC K. pneumoniae CCUG 59348 [6, 16]: 32 micrograms/mL
- MIC K. pneumoniae NCTC 13442 [6, 16]: 1 micrograms/mL
- MIC K. pneumoniae CCUG 59348 [6, 17]: >32 micrograms/mL
- MIC K. pneumoniae NCTC 13442 [6, 17]: 4 micrograms/mL
- MIC K. pneumoniae CCUG 59348 [6, 18]: >32 microgram/mL
- MIC K. pneumoniae CCUG 59626 [6, 18]: 2 microgram/mL
- MIC K. pneumoniae NCTC 13442 [6, 18]: 8 microgram/mL
- MIC K. pneumoniae ATCC BAA-1706 ([6]; K. pneumoniae ATCC BAA-1706, 1:1 combination with Meropenem, total drug concentration): 4 micrograms/mL
- MIC K. pneumoniae CCUG 59348 ([6]; K. pneumoniae CCUG 59348, 1:1 combination with Meropenem, total drug concentration): >32 micrograms/mL
- MIC K. pneumoniae NCTC 13442 ([6]; K. pneumoniae NCTC 13442, 1:1 combination with Meropenem, total drug concentration): 4 micrograms/mL
- MIC K. pneumoniae ATCC-BAA-2146 [6, 20]: 1 micrograms/mL
- MIC K. pneumoniae CCUG-59348 [6, 20]: 2 micrograms/mL
- MIC K. pneumoniae NCTC 13438 [6, 20]: 2 micrograms/mL
- MIC K. pneumoniae ATCC-BAA-2146 [6, 21]: 4 micrograms/mL
- MIC K. pneumoniae CCUG-59348 [6, 21]: 4 micrograms/mL
- MIC K. pneumoniae NCTC 13438 [6, 21]: 2 micrograms/mL
- MIC K. pneumoniae ATCC-BAA-2146 [6, 22]: 1 micrograms/mL
- MIC K. pneumoniae CCUG-59348 [6, 22]: 1 micrograms/mL
- MIC K. pneumoniae NCTC 13438 [6, 22]: 1 micrograms/mL
